The IC50 is the concentration that gives 50% inhibition.

In test [1] the test system is HPAC (homozygous mutant KRAS G12D human pancreatic cell line). Put plainly: KRAS 3D-Cell Proliferation Assay, HPAC (Example 503). The conditions noted are these: Homo sapiens, HPAC, 168 h, HPAC 3D culture, 7 days, CellTiter-Glo 3D; read-out: Prolif HPAC 3D ATP IC50. Format: cell-based. The method, boiled down:
(§1)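 IC50 values derive from 4-parameter Hill fits of normalized luminescence, where DMSO sets 0% and 1 μM staurosporine 100% inhibition. 3D cultures in RPMI-1640 with 10% fetal bovine serum were exposed to compound for 7 days before CellTiter-Glo 3D lysis.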
For orientation: In ATP-based viability assays light output follows the ATP content of the culture.

Test [2] deals with H1975 (KRAS wild type human lung adenocarcinoma cell line). Put plainly: KRAS 3D-Cell Proliferation Assay, H1975 (Example 503). Format: cell-based. As to conditions: Homo sapiens, NCI-H1975, 168 h, H1975 3D culture, 7 days, CellTiter-Glo 3D; read-out: Prolif H1975 3D ATP IC50. Summed up:
as §1

As to `Cc1c(F)c(N)cc(-c2nc3c4c(nc(OC[C@@]56CCCN5C[C@H](F)C6)nc4c2F)N2C[C@H]4CC[C@H](N4)[C@H]2[C@H](C)O3)c1S(C)(=O)=O` [Compound 180, 2-Fluoro-5-((5S,5aS,6S,9R)-1-fluoro-12-(((2R,7aS)-2-fluorotetrahydro-1H-pyrrolizin-7a(5H)-yl)methoxy)-5-methyl-5a,6,7,8,9,10-hexahydro-5H-4-oxa-3,10a,11,13,14-pentaaza-6,9-methanonaphtho[1,8-ab]heptalene-2-yl)-3-methyl-4-(methylsulfonyl)aniline], the IC50 in test [1] worked out at 2000 nM; in test [2], 20000 nM.
As to `C[C@@H]1Oc2nc(-c3cc(N)c(=O)n(C)c3C(F)(F)F)c(F)c3nc(OC[C@@]45CCCN4C[C@H](F)C5)nc(c23)N2C[C@H]3CC[C@H](N3)[C@@H]12` [Compound 184, 3-Amino-5-((5S,5aS,6S,9R)-1-fluoro-12-(((2R,7aS)-2-fluorotetrahydro-1H-pyrrolizin-7a(5H)-yl)methoxy)-5-methyl-5a,6,7,8,9,10-hexahydro-5H-4-oxa-3,10a,11,13,14-pentaaza-6,9-methanonaphtho[1,8-ab]heptalene-2-yl)-1-methyl-6-(trifluoromethyl)pyridin-2(1H)-one], the half-maximal inhibitory concentration (IC50) was found to be 147 nM in test [1] and 20000 nM in test [2].
As for `Cc1nc(N)cc(-c2nc3c4c(nc(OC[C@@]56CCCN5C[C@H](F)C6)nc4c2F)N2C[C@H]4CC[C@H](N4)[C@H]2[C@H](C)O3)c1CC(F)(F)F` [Compound 185, 4-((5S,5aS,6S,9R)-1-Fluoro-12-(((2R,7aS)-2-fluorotetrahydro-1H-pyrrolizin-7a(5H)-yl)methoxy)-5-methyl-5a,6,7,8,9,10-hexahydro-5H-4-oxa-3,10a,11,13,14-pentaaza-6,9-methanonaphtho[1,8-ab]heptalene-2-yl)-6-methyl-5-(2,2,2-trifluoroethyl)pyridin-2-amine], the figures for the IC50 in test [1] and in test [2] were 32 nM and 4930 nM, respectively.
For `C[C@@H]1Oc2nc(-c3cc(N)c(F)cc3CC(F)F)c(F)c3nc(OC[C@@]45CCCN4C[C@H](F)C5)nc(c23)N2C[C@H]3CC[C@H](N3)[C@@H]12` [Compound 187, 4-(2,2-Difluoroethyl)-2-fluoro-5-((5S,5aS,6S,9R)-1-fluoro-12-(((2R,7aS)-2-fluorotetrahydro-1H-pyrrolizin-7a(5H)-yl)methoxy)-5-methyl-5a,6,7,8,9,10-hexahydro-5H-4-oxa-3,10a,11,13,14-pentaaza-6,9-methanonaphtho[1,8-ab]heptalene-2-yl)aniline], in that order: 34.8 nM and 18900 nM.
With `Cc1nc(N)cc(-c2nc3c4c(nc(OC[C@@]56CCCN5C[C@H](F)C6)nc4c2F)N2C[C@H]4CC[C@H](N4)[C@H]2[C@H](C)O3)c1OC(F)F` [Compound 188, 5-(Difluoromethoxy)-4-((5S,5aS,6S,9R)-1-fluoro-12-(((2R,7aS)-2-fluorotetrahydro-1H-pyrrolizin-7a(5H)-yl)methoxy)-5-methyl-5a,6,7,8,9,10-hexahydro-5H-4-oxa-3,10a,11,13,14-pentaaza-6,9-methanonaphtho[1,8-ab]heptalene-2-yl)-6-methylpyridin-2-amine], the values for the IC50 in test [1] and in test [2] were 66 nM and 10100 nM, respectively.
Take `Cc1nc(N)cc(-c2nc3c4c(nc(OC[C@@]56CCCN5C[C@H](F)C6)nc4c2F)N2C[C@H]4CC[C@H](N4)[C@H]2[C@H](C)O3)c1CC(F)F` [Compound 189, 5-(2,2-Difluoroethyl)-4-((5S,5aS,6S,9R)-1-fluoro-12-(((2R,7aS)-2-fluorotetrahydro-1H-pyrrolizin-7a(5H)-yl)methoxy)-5-methyl-5a,6,7,8,9,10-hexahydro-5H-4-oxa-3,10a,11,13,14-pentaaza-6,9-methanonaphtho[1,8-ab]heptalene-2-yl)-6-methylpyridin-2-amine]: the IC50 in test [1] came out at 95.4 nM; in test [2], 20000 nM.
Take `Cc1c(F)c(N)nc(-c2nc3c4c(nc(OC[C@@]56CCCN5C[C@H](F)C6)nc4c2F)N2C[C@H]4CC[C@H](N4)[C@H]2[C@H](C)O3)c1C(F)(F)F` [Compound 191, 3-Fluoro-6-((5S,5aS,6S,9R)-1-fluoro-12-(((2R,7aS)-2-fluorotetrahydro-1H-pyrrolizin-7a(5H)-yl)methoxy)-5-methyl-5a,6,7,8,9,10-hexahydro-5H-4-oxa-3,10a,11,13,14-pentaaza-6,9-methanonaphtho[1,8-ab]heptalen-2-yl)-4-methyl-5-(trifluoromethyl)pyridin-2-amine]: the IC50 in test [1] is 29.6 nM; in test [2] it was 1410 nM.
As to `Cc1c(F)c(N)nc(-c2nc3c4c(nc(OC[C@@]56CCCN5CC5(CC5(F)F)C6)nc4c2F)N2C[C@H]4CC[C@H](N4)[C@H]2[C@H](C)O3)c1C(F)(F)F` (stereo partly drawn) [Compound 192, 6-((5S,5aS,6S,9R)-12-(((7a′S)-2,2-Difluorodihydro-1′H,3′H-spiro[cyclopropane-1,2′-pyrrolizin]-7a′(5′H)-yl)methoxy)-1-fluoro-5-methyl-5a,6,7,8,9,10-hexahydro-5H-4-oxa-3,10a,11,13,14-pentaaza[6,9]methanonaphtho[1,8-ab]heptalene-2-yl)-3-fluoro-4-methyl-5-(trifluoromethyl)pyridin-2-amine], the IC50 in test [1] was 7.17 nM; in test [2], 1280 nM.
For `C[C@@H]1Oc2nc(N(C)c3ccc(F)c(N)c3)c(F)c3nc(OC[C@@]45CCCN4C[C@H](F)C5)nc(c23)N2C[C@H]3CC[C@H](N3)[C@@H]12` [Compound 193, 4-fluoro-N^1-((5S,5aS,6S,9R)-1-fluoro-12-(((2R,7aS)-2-fluorotetrahydro-1H-pyrrolizin-7a(5H)-yl)methoxy)-5-methyl-5a,6,7,8,9,10-hexahydro-5H-4-oxa-3,10a,11,13,14-pentaaza-6,9-methanonaphtho[1,8-ab]heptalen-2-yl)-N^1-methylbenzene-1,3-diamine], the values for the IC50 in test [1] and in test [2] were 2000 nM and 20000 nM, respectively.
Turning to `Cc1c(F)c(N)c(F)c(-c2nc3c4c(nc(OC[C@@]56CCCN5C[C@H](F)C6)nc4c2F)N2C[C@H]4CC[C@H](N4)[C@H]2[C@H](C)O3)c1Cl` [Compound 195, 4-Chloro-2,6-difluoro-3-((5S,5aS,6S,9R)-1-fluoro-12-(((2R,7aS)-2-fluorotetrahydro-1H-pyrrolizin-7a(5H)-yl)methoxy)-5-methyl-5a,6,7,8,9,10-hexahydro-5H-4-oxa-3,10a,11,13,14-pentaaza-6,9-methanonaphtho[1,8-ab]heptalen-2-yl)-5-methylaniline], the IC50 is 22.1 nM in test [1] and 1340 nM in test [2].
As to `C[C@@H]1Oc2nc(-c3c(F)ccc4cc[nH]c(=O)c34)c(F)c3nc(OC[C@@]45CCCN4C[C@H](F)C5)nc(c23)N2C[C@H]3CC[C@H](N3)[C@@H]12` [Compound 196, 7-Fluoro-8-((5S,5aS,6S,9R)-1-fluoro-12-(((2R,7aS)-2-fluorotetrahydro-1H-pyrrolizin-7a(5H)-yl)methoxy)-5-methyl-5a,6,7,8,9,10-hexahydro-5H-4-oxa-3,10a,11,13,14-pentaaza-6,9-methanonaphtho[1,8-ab]heptalen-2-yl)isoquinolin-1(2H)-one], the 50% inhibitory concentration (IC50) in test [1] and in test [2] was 20000 nM each time.
Take `Cc1nc(N)c(Cl)c(-c2nc3c4c(nc(OC[C@@]56CCCN5C[C@H](F)C6)nc4c2F)N2C[C@H]4CC[C@H](N4)[C@H]2[C@H](C)O3)c1C(F)(F)F` [Compound 197, 3-Chloro-4-((5S,5aS,6S,9R)-1-fluoro-12-(((2R,7aS)-2-fluorotetrahydro-1H-pyrrolizin-7a(5H)-yl)methoxy)-5-methyl-5a,6,7,8,9,10-hexahydro-5H-4-oxa-3,10a,11,13,14-pentaaza-6,9-methanonaphtho[1,8-ab]heptalen-2-yl)-6-methyl-5-(trifluoromethyl)pyridin-2-amine]: the results for the IC50 in test [1] and in test [2] were 9.79 nM and 468 nM, respectively.
Regarding `Cc1nc(N)c(C)c(-c2nc3c4c(nc(OC[C@@]56CCCN5C[C@H](F)C6)nc4c2F)N2C[C@H]4CC[C@H](N4)[C@H]2[C@H](C)O3)c1C(F)(F)F` [Compound 198, 4-((5S,5aS,6S,9R)-1-Fluoro-12-(((2R,7aS)-2-fluorotetrahydro-1H-pyrrolizin-7a(5H)-yl)methoxy)-5-methyl-5a,6,7,8,9,10-hexahydro-5H-4-oxa-3,10a,11,13,14-pentaaza-6,9-methanonaphtho[1,8-ab]heptalen-2-yl)-3,6-dimethyl-5-(trifluoromethyl)pyridin-2-amine], the IC50 in test [1] came out at 13 nM; in test [2], 3720 nM.
With `C[C@@H]1Oc2nc(-c3cc(N)cc4c3CC4)c(F)c3nc(OC[C@@]45CCCN4C[C@H](F)C5)nc(c23)N2C[C@H]3CC[C@H](N3)[C@@H]12` [Compound 201, 5-((5S,5aS,6S,9R)-1-Fluoro-12-(((2R,7aS)-2-fluorotetrahydro-1H-pyrrolizin-7a(5H)-yl)methoxy)-5-methyl-5a,6,7,8,9,10-hexahydro-5H-4-oxa-3,10a,11,13,14-pentaaza-6,9-methanonaphtho[1,8-ab]heptalen-2-yl)bicyclo[4.2.0]octa-1(6),2,4-trien-3-amine], the IC50 in test [1] came to 407 nM; in test [2], 10600 nM.
As for `Cc1c(F)c(O)cc(-c2nc3c4c(nc(OC[C@@]56CCCN5C[C@H](F)C6)nc4c2F)N2C[C@H]4CC[C@H](N4)[C@H]2[C@H](C)O3)c1C(F)(F)F` [Compound 202, 2-Fluoro-5-((5S,5aS,6S,9R)-1-fluoro-12-(((2R,7aS)-2-fluorotetrahydro-1H-pyrrolizin-7a(5H)-yl)methoxy)-5-methyl-5a,6,7,8,9,10-hexahydro-5H-4-oxa-3,10a,11,13,14-pentaaza-6,9-methanonaphtho[1,8-ab]heptalen-2-yl)-3-methyl-4-(trifluoromethyl)phenol], the values for the IC50 in test [1] and in test [2] were 2000 nM and 20000 nM, respectively.

These data come from US12338256B2, “Aza-tetracyclic oxazepine compounds and uses thereof” (Genentech, Inc., priority 2022, dated 2025).
